Test system: TPM3-NTRK1-wt IC50 / primary target (e.g. CD74-ROS1-wt) IC50, Ba/F3 cells
Assay: Cell assay TRKA selectivity (TRKA potency divided by primary target potency)
Type: cell-based
Conditions: for TPM3-NTRK1-wt/CD74-ROS1-G2032R: TRKA selectivity ratio: TPM3-NTRK1-wt IC50 / CD74-ROS1-G2032R IC50, Ba/F3 cells; for TPM3-NTRK1-wt/CD74-ROS1-wt: TRKA selectivity ratio: TPM3-NTRK1-wt IC50 / CD74-ROS1-wt IC50, Ba/F3 cells; for TPM3-NTRK1-wt/EML4-ALK-L1196M-G1202R: TRKA selectivity ratio: TPM3-NTRK1-wt IC50 / EML4-ALK-L1196M-G1202R IC50, Ba/F3 cells; for TPM3-NTRK1-wt/EML4-ALK-wt: TRKA selectivity ratio: TPM3-NTRK1-wt IC50 / EML4-ALK-wt IC50, Ba/F3 cells
In short: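 IL-3-independent Ba/F3 lines stably expressing TPM3-TRKA or the primary fusion (e.g. CD74-ROS1 wt) were exposed to 3-fold compound dilutions for 72 h. Viability was read by CellTiter-Glo luminescence, with IC50 from four-parameter logistic fit. Selectivity is TPM3-NTRK1 IC50 divided by primary-target IC50, binned A (>30-fold) to D (<1).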

Compound | TPM3-NTRK1-wt/CD74-ROS1-G2032R | TPM3-NTRK1-wt/CD74-ROS1-wt | TPM3-NTRK1-wt/EML4-ALK-L1196M-G1202R | TPM3-NTRK1-wt/EML4-ALK-wt
C[C@H]1Oc2cc(cnc2N)-c2c(cnn2CC2CC2)Cc2cn(C(F)F)nc2-c2ccc(F)cc21 [Example 160, (19R)-3-(cyclopropylmethyl)-10-(difluoromethyl)-16-fluoro-19-methyl-20-oxa-3,4,10,11,23-pentaazapentacyclo[19.3.1.0^2,^6.0^8,^12.0^13,^18]pentacosa-1(24),2(6),4,8,11,13,15,17,21(25),22-decaen-22-amine] | A (bin A for very high selectivity, ratio>30-fold) | A (bin A for very high selectivity, ratio>30-fold) | A (bin A for very high selectivity, ratio>30-fold) | A (bin A for very high selectivity, ratio>30-fold)
C[C@H]1Oc2cc(cnc2N)-c2c(nnn2CC2CC2)Cc2cccnc2-c2ccc(F)cc21 [Example 116, (20R)-3-(cyclopropylmethyl)-17-fluoro-20-methyl-21-oxa-3,4,5,12,24-pentaazapentacyclo[20.3.1.0^2,^6.0^8,^13.0^14,^19]hexacosa-1(25),2(6),4,8(13),9,11,14,16,18,22(26),23-undecaen-23-amine] | A (bin A for very high selectivity, ratio>30-fold) | A (bin A for very high selectivity, ratio>30-fold) | A (bin A for very high selectivity, ratio>30-fold) | A (bin A for very high selectivity, ratio>30-fold)
C[C@H]1Oc2cc(cnc2N)-c2c(cnn2C2CCC2)Cc2cnn(C)c2-c2ccc(F)cc21 [Example 5, (19R)-3-cyclobutyl-16-fluoro-11,19-dimethyl-20-oxa-3,4,10,11,23-pentaazapentacyclo[19.3.1.0^2,^6.0^8,^12.0^13,^18]pentacosa-1(24),2(6),4,8(12),9,13,15,17,21(25),22-decaen-22-amine] | A (bin A for very high selectivity, ratio>30-fold) | A (bin A for very high selectivity, ratio>30-fold) | A (bin A for very high selectivity, ratio>30-fold) | A (bin A for very high selectivity, ratio>30-fold)
CCn1ncc2c1-c1cnc(N)c(c1)OC(C)c1cc(F)ccc1-n1cncc1C2 (centres unmarked) [Example 38, 3-ethyl-16-fluoro-19-methyl-20-oxa-3,4,10,12,23-pentaazapentacyclo[19.3.1.0^2,^6.0^8,^12.0^13,^18]pentacosa-1(24),2(6),4,8,10,13,15,17,21(25),22-decaen-22-amine] | A (bin A for very high selectivity, ratio>30-fold) | A (bin A for very high selectivity, ratio>30-fold) | C (bin C for moderate selectivity, ratio≥1) | B (bin B for high selectivity, ratio>10-fold)
C[C@H]1Oc2cc(cnc2N)-c2c(C#N)nn(C)c2Cc2cc(F)cnc2-c2ccc(F)cc21 [Example 105, (20R)-23-amino-10,17-difluoro-5,20-dimethyl-21-oxa-4,5,12,24-tetraazapentacyclo[20.3.1.0^2,^6.0^8,^13.0^14,^19]hexacosa-1(25),2(6),3,8(13),9,11,14,16,18,22(26),23-undecaene-3-carbonitrile] | A (bin A for very high selectivity, ratio>30-fold) | A (bin A for very high selectivity, ratio>30-fold) | B (bin B for high selectivity, ratio>10-fold) | A (bin A for very high selectivity, ratio>30-fold)
CCn1ncc2c1-c1cnc(N)c(c1)O[C@H](C)c1cc(F)ccc1-c1nc(C)cn1C2 [Example 45, (19R)-3-ethyl-16-fluoro-10,19-dimethyl-20-oxa-3,4,8,11,23-pentaazapentacyclo[19.3.1.0^2,^6.0^8,^12.0^13,^18]pentacosa-1(24),2(6),4,9,11,13,15,17,21(25),22-decaen-22-amine] | A (bin A for very high selectivity, ratio>30-fold) | A (bin A for very high selectivity, ratio>30-fold) | B (bin B for high selectivity, ratio>10-fold) | A (bin A for very high selectivity, ratio>30-fold)
CCc1noc2c1-c1cnc(N)c(c1)O[C@H](C)c1cc(F)cc(F)c1-c1nn(C)cc1C2 [Example 90, (19R)-3-ethyl-14,16-difluoro-10,19-dimethyl-5,20-dioxa-4,10,11,23-tetraazapentacyclo[19.3.1.0^2,^6.0^8,^12.0^13,^18]pentacosa-1(24),2(6),3,8,11,13,15,17,21(25),22-decaen-22-amine] | A (bin A for very high selectivity, ratio>30-fold) | A (bin A for very high selectivity, ratio>30-fold) | C (bin C for moderate selectivity, ratio≥1) | A (bin A for very high selectivity, ratio>30-fold)
CCn1ncc2c1-c1cnc(N)c(c1)OCc1cc(F)ccc1-n1nc(C)cc1C2 [Example 69, 3-ethyl-16-fluoro-10-methyl-20-oxa-3,4,11,12,23-pentaazapentacyclo[19.3.1.0^2,^6.0^8,^12.0^13,^18]pentacosa-1(24),2(6),4,8,10,13,15,17,21(25),22-decaen-22-amine] | A (bin A for very high selectivity, ratio>30-fold) | A (bin A for very high selectivity, ratio>30-fold) | B (bin B for high selectivity, ratio>10-fold) | A (bin A for very high selectivity, ratio>30-fold)
C[C@H]1Oc2cc(cnc2N)-c2c(C#N)nn(C)c2Cc2scnc2-c2ccc(F)cc21 [Example 94, (19R)-22-amino-16-fluoro-5,19-dimethyl-20-oxa-9-thia-4,5,11,23-tetraazapentacyclo[19.3.1.0^2,^6.0^8,^12.0^13,^18]pentacosa-1(24),2(6),3,8(12),10,13,15,17,21(25),22-decaene-3-carbonitrile] | A (bin A for very high selectivity, ratio>30-fold) | A (bin A for very high selectivity, ratio>30-fold) | A (bin A for very high selectivity, ratio>30-fold) | A (bin A for very high selectivity, ratio>30-fold)
CCc1nnn2c1-c1cnc(N)c(c1)O[C@H](C)c1cc(F)ccc1-c1nn(C)cc1C2 [Example 23, (19R)-3-ethyl-16-fluoro-10,19-dimethyl-20-oxa-4,5,6,10,11,23-hexaazapentacyclo[19.3.1.0^2,^6.0^8,^12.0^13,^18]pentacosa-1(24),2,4,8,11,13,15,17,21(25),22-decaen-22-amine] | A (bin A for very high selectivity, ratio>30-fold) | A (bin A for very high selectivity, ratio>30-fold) | C (bin C for moderate selectivity, ratio≥1) | A (bin A for very high selectivity, ratio>30-fold)
CCn1ncc2c1-c1cnc(N)c(c1)OCc1cc(F)ccc1-n1nccc1C2 [Example 41, 3-ethyl-16-fluoro-20-oxa-3,4,11,12,23-pentaazapentacyclo[19.3.1.0^2,^6.0^8,^12.0^13,^18]pentacosa-1(24),2(6),4,8,10,13,15,17,21(25),22-decaen-22-amine] | A (bin A for very high selectivity, ratio>30-fold) | A (bin A for very high selectivity, ratio>30-fold) | B (bin B for high selectivity, ratio>10-fold) | A (bin A for very high selectivity, ratio>30-fold)
Cc1nc2c(s1)Cc1c(c(C#N)nn1C)-c1cnc(N)c(c1)OCc1cc(F)ccc1-2 [Example 115, 22-amino-16-fluoro-5,10-dimethyl-20-oxa-9-thia-4,5,11,23-tetraazapentacyclo[19.3.1.0^2,^6.0^8,^12.0^13,^18]pentacosa-1(24),2(6),3,8(12),10,13,15,17,21(25),22-decaene-3-carbonitrile] | A (bin A for very high selectivity, ratio>30-fold) | A (bin A for very high selectivity, ratio>30-fold) | B (bin B for high selectivity, ratio>10-fold) | A (bin A for very high selectivity, ratio>30-fold)
C[C@H]1Oc2cc(cnc2N)-c2c(nnn2CC2CC2)Cc2cn(C)nc2-c2ccc(F)cc21 [Example 29, (19R)-3-(cyclopropylmethyl)-16-fluoro-10,19-dimethyl-20-oxa-3,4,5,10,11,23-hexaazapentacyclo[19.3.1.0^2,^6.0^8,^12.0^13,^18]pentacosa-1(24),2(6),4,8,11,13,15,17,21(25),22-decaen-22-amine] | A (bin A for very high selectivity, ratio>30-fold) | A (bin A for very high selectivity, ratio>30-fold) | A (bin A for very high selectivity, ratio>30-fold) | A (bin A for very high selectivity, ratio>30-fold)
CCn1ncc2c1-c1cnc(N)c(c1)O[C@H](C)c1cc(F)ccc1-n1nccc1C2 [Example 33, (19R)-3-ethyl-16-fluoro-19-methyl-20-oxa-3,4,11,12,23-pentaazapentacyclo[19.3.1.0^2,^6.0^8,^12.0^13,^18]pentacosa-1(24),2(6),4,8,10,13,15,17,21(25),22-decaen-22-amine] | A (bin A for very high selectivity, ratio>30-fold) | A (bin A for very high selectivity, ratio>30-fold) | B (bin B for high selectivity, ratio>10-fold) | A (bin A for very high selectivity, ratio>30-fold)

Source: patent US11667649B2, “Heteroaromatic macrocyclic ether chemotherapeutic agents” (Nuvalent, Inc., priority 2020, dated 2023)
